Series [1] deals with cows (Holstein Friesians). Kind of series: Treatment with DPD analogs (organosulfur compounds) and milk yield (Example 8). The series is classed as in vivo, cow. How it is done: Study design. 36 cows (Holstein Friesians) from 2 farms were used. The feed of the cows was composed of TMR, including corn and grass silage, supplemented with soya and minerals. […] The cows were milked in a milk robot. […] The cows were milked twice a day. The cows were housed in free stables. […] Placebo treatment corresponded to administration of two gel capsules containing 180 ml water.
For this study dosages synthetic compounds (>96% purity) as indicated in table 17 were administered to cows. The objective of this study was to compare the activity of a corresponding dose of the compounds expressed in mol, based on the number of moles that is present in 80 ml di-n-propyl disulfide at 20° C. The number of moles was converted to ml or grams of the tested compounds. For this purpose, the molecular weight and specific density were used in the calculations. The compounds were formulated in the gel capsules as indicated in the previous examples.
Before the various dosages were administered, the milk yields were monitored for at least 5 days.

For series [2], the system named is cows (Holstein Friesians). The following applies: for Milk yield Last milking: before administration; for % reduction after 24 h / % reduction after 48 h / % reduction after 72 h / % reduction after 96 h: vs milk yield before treatment.
Protocol: Twelve cows (Holstein Friesians) from 1 farm were used. The start of the dry period of every cow was between 40 to 60 days before calving. The cows were milked twice a day at fixed times and the cows were selected on a milk production of >12.5 litres/day 24 hours before PTSO administering took place. No extra measures were taken to stimulate dry-off, such as changes in feed ration or changes in milking frequency. The cows were milked twice a day. The cows were housed in free stables. A porcine gelatine capsule with PTSO or placebo gel capsule with water were administered 7 to 14 days before the start of the dry-off period.
For this study various dosages synthetic PTSO (>98% purity) were administered to cows with a milk yield of at least 12.5 kg milk per day. The following dosages were applied: 0, 10, 20, 40 ml of pure PTSO. For each dosage 3 cows were used.
Before the various dosages were administered the milk yield was monitored for 14 days. The gel capsules were orally administered by a bolus shooter, the gel capsule for the placebo group contained tap water. Administering of a capsule took place between the morning and afternoon milking. On t=14 days the PTSO-containing capsules and the placebo capsules were administered and the milk yield was monitored 48 hours more.
The test system of a further series is dairy cows. To be noted: single injection 5.6 mg at dry-off, cited from earlier work.
A further series has as its system goats. The following applies: single injection 5.6 mg at dry-off; cited from earlier work.
The next series relates to cows. To be noted: cited from earlier work.
Setting [3] is: individual cows, dose per compound as listed in E284.
Where [4] appears, read: vs milk yield before treatment, individual cows, dose per compound as listed in E284.

The values that follow come from patent publication US20260083687A1, “COMPOUNDS FOR REDUCING LACTATION AND IMPROVING HEALTH” (AHV International B.V., priority 2022, published 2026).

Read-outs that look alike come from different tables or passages of the source.

In the case of `CCCSS(=O)(=O)CCC` [PTSO, di-n-propyl thiosulfonate], the “% reduction after 24 h average (milk yield)” value in series [1] (24 h after one oral gel capsule, dose equimolar to 80 ml di-n-propyl disulfide, negative value = increase in yield) stood at 61%. Besides, the “% reduction after 48 h average (milk yield)” value in series [1] (48 h after one oral gel capsule, dose equimolar to 80 ml di-n-propyl disulfide, negative value = increase in yield) is given as 71%. For the same molecule, the “% reduction after 72 h average (milk yield)” value in series [1] (72 h after one oral gel capsule, dose equimolar to 80 ml di-n-propyl disulfide, negative value = increase in yield) was 41%. For the same molecule, the “% reduction after 96 h average (milk yield)” value in series [1] (96 h after one oral gel capsule, dose equimolar to 80 ml di-n-propyl disulfide, negative value = increase in yield) was determined as 4.7%. The “average reduction after 24, 48 and 72 h (%) (milk yield)” value in series [1] (average of 24, 48 and 72 h after one oral gel capsule, dose equimolar to 80 ml di-n-propyl disulfide) is recorded as 58%. The “Average reduction after 24 and 48 h (%) (milk yield)” value in series [1] (average of 24 and 48 h after one oral gel capsule, dose equimolar to 80 ml di-n-propyl disulfide) is on record as 66%. Moreover, in series [1] (before administration, individual cows, single oral gel capsule dose per cow (ml unless g): diethyl disulfide 63, di-n-propyl disulfide 80, diisopropyl disulfide 160, di-n-butyl disulfide 100, dibenzyl disulfide 102, diethyl sulfide 55, di-n-propyl sulfide 72, diisopropyl sulfide 74, di-n-butyl sulfide 90, dibenzyl sulfide 96 g, diphenyl sulfide 85, di-n-propyl trisulfide 98, di-n-propyl sulfone 6), the “Milk yield (kg) Last milking” value was 15.7 kg. Besides, in series [1] (setting [3]), the “Average reduction after 24 and 48 h (%)” value is 66%; the “Milk yield (kg) After 24 h” value was determined as 7.7 kg; the “Milk yield (kg) After 48 h” value came out at 4.6 kg; the “Milk yield (kg) After 72 h” value is recorded as 9.3 kg. Further, in series [1] (setting [3]), the “Milk yield (kg) After 96 h” value is given as 14.5 kg; the “average reduction after 24, 48 and 72 h (%)” value was found to be 58%. In addition, in series [1] (setting [4]), the “% reduction after 24 h” value came to 61%, the “% reduction after 48 h” value turned out to be 71%, the “% reduction after 72 h” value is 41% and the “% reduction after 96 h” value is given as 4.7%. For the same molecule, in series [2] (10 ml PTSO), the “Average reduction 24 and 48 h (%)” value was −5%; the “Milk yield After 24 h” value was 19.89 kg; the “Milk yield After 48 h” value came to 19.51 kg; the “Milk yield After 72 h” value is listed as 18.94 kg. Also, in series [2] (10 ml PTSO), the “Milk yield After 96 h” value is recorded as 18.67 kg, the “Milk yield Last milking” value worked out at 18.76 kg, the “% reduction after 24 h” value is −6% and the “% reduction after 48 h” value is −4%. In series [2] (10 ml PTSO), the “% reduction after 72 h” value is recorded as −0.03% and the “% reduction after 96 h” value was 0.01%. For the same molecule, in series [2] (20 ml PTSO), the “Average reduction 24 and 48 h (%)” value worked out at 66%; the “Milk yield After 24 h” value is given as 7.7 kg; the “Milk yield After 48 h” value is 4.56 kg; the “Milk yield After 72 h” value amounted to 9.31 kg. In series [2] (20 ml PTSO), the “Milk yield After 96 h” value amounted to 14.99 kg, the “effect on milk yield compared to the milk yield before treatment” value is recorded as “clear lowering on milk yield”, the “Milk yield Last milking” value came to 15.72 kg and the “% reduction after 24 h” value was 61%. For the same molecule, in series [2] (20 ml PTSO), the “% reduction after 48 h” value amounted to 71%, the “% reduction after 72 h” value is on record as 41% and the “% reduction after 96 h” value is given as 4.7%. In series [2] (40 ml PTSO), the “Average reduction 24 and 48 h (%)” value came out at 55%; the “Milk yield After 24 h” value is 8.89 kg; the “Milk yield After 48 h” value worked out at 7.04 kg; the “Milk yield After 72 h” value came out at 9.06 kg. Moreover, in series [2] (40 ml PTSO), the “Milk yield After 96 h” value turned out to be 15.87 kg, the “Milk yield Last milking” value amounted to 16.77 kg, the “% reduction after 24 h” value stood at 52% and the “% reduction after 48 h” value is 58%. Further, in series [2] (40 ml PTSO), the “% reduction after 72 h” value came to 46% and the “% reduction after 96 h” value amounted to 5.4%. In series [2] (after PTSO administration), the “time to complete recovery of milk yield” value was 3 to 4 days. In addition, in series [2] (bovine, in vivo), the “damage to the udder” value is reported as “does not cause any damage to the udder”. Besides, in series [2] (single oral dose), the “dosage at which the effect on milk yield became visible” value is ≥ 20 mL and the “dosage giving maximum response (milk yield decrease)” value was ≥ 20 mL.
As for `C=CCN1C[C@H](C(=O)N(CCCN(C)C)C(=O)NCC)C[C@@H]2c3cccc4[nH]cc(c34)C[C@H]21` [cabergoline], the “duration of reduced prolactin after dry-off” value in the series with dairy cows is “up to 8 days”. Moreover, the results for the milk reduction with dairy cows (dairy cows) and in the series on goats were 22% and 28%, respectively.
Consider `CCCN1CC(NS(=O)(=O)N(CC)CC)CC2Cc3c(O)cccc3CC21` (stereo not shown) [quinagolide], for which the “lower milk production compared with the placebo group” value in the series on cows (1 mg daily i.m. during 9 weeks, early lactation, last 4 weeks of treatment) is recorded as 5.3 kg/day. In addition, the Milk production in the series with cows (4 mg i.m. twice a day from 5 days before until 13 days after dry-off, placebo 25 kg/day) is on record as 18 kg/day. The “decreased milk production compared with the placebo group” value with cows (Ollier, Zhao and Lacasse (2014)) is 7 L.
